# Laboratory results reported in article PMC10289985, “Brigatinib pharmacokinetics in patients with chronic hepatic impairment” (Investigational New Drugs, 2023).
# Like-named read-outs stand apart in the source and are kept apart here.
# Key:
# [1] = Single oral 90-mg dose plasma PK in participants with chronic hepatic impairment and matched healthy participants; type: in vivo, human; conditions: for Tmax / half-life / AUC(0-t) / AUC(0-inf): human, plasma, po, 90 mg; for Tmax / half-life / AUC(0-t) / AUC(0-inf) / Tmax, median (range) / CL/Fu, unbound apparent oral clearance, geometric mean (geometric %CV) / Vz/Fu, unbound apparent volume of distribution, geometric mean (geometric %CV) / Cmax,u, geometric mean (geometric %CV): single oral 90 mg; for Tmax / Tmax, median (range): fasted; for Tmax: read-out: Tmax, median (range); for half-life: read-out: t1/2, terminal elimination half-life, geometric mean (geometric %CV) (converted); for AUC(0-t) / AUC(0-inf) / Cmax,u, geometric mean (geometric %CV): unbound; for AUC(0-t): read-out: AUC0−last,u, geometric mean (geometric %CV); for AUC(0-inf): read-out: AUC0−∞,u, geometric mean (geometric %CV)
# Description: This open-label, parallel-group, inpatient, nonrandomized study was performed at 1 clinical study site, the Orlando Clinical Research Center (Orlando, FL, USA), and evaluated the PK of brigatinib after administration of a single oral 90-mg dose in participants with chronic hepatic impairment and in healthy participants with normal hepatic function. The study consisted of a screening period of up to 22 days and a single treatment and assessment period that included a 10-day (9-night) inpatient stay (Day −1 to Day 9). On the morning of Day 1, each participant received a single oral dose of 90 mg brigatinib under fasting conditions with approximately 240 mL of water. Fasting was required for approximately 10 hours before study drug dosing, for approximately 4 hours postdose, and for at least 8 hours before clinical laboratory tests. Meals were standardized for all participants. Water was permitted ad libitum except for the period between approximately 1 hour before and 1 hour after dosing. Participants remained in the clinic through 192 hours postdose for PK sample collection and were discharged from the clinical research site on Day 9.
# Blood samples were collected before brigatinib administration (predose) and at 0.5, 1, 1.5, 2, 2.5, 3, 4, 6, 8, 12, 24, 36, 48, 72, 96, 120, 144, 168, and 192 hours following brigatinib administration to measure brigatinib plasma concentrations. Samples to assess brigatinib plasma protein binding were collected at 2, 8, and 24 hours postdose.
# Plasma samples were analyzed for brigatinib concentrations using a previously reported dual-range assay with a lower limit of quantitation of 0.100 ng/mL and an upper limit of quantitation of 2500 ng/mL [14].
# The PK-evaluable population was defined as participants who received the single dose of brigatinib, had no major protocol deviations that affected the PK analyses, and had sufficient data to calculate PK parameters. Individual participant brigatinib plasma concentration-time profiles were analyzed via noncompartmental analysis using Phoenix WinNonLin version 6.4 (Certara, Inc., Princeton, NJ) to calculate plasma PK parameters. Plasma PK parameters calculated for brigatinib included maximum observed plasma concentration (Cmax), time to first maximum observed plasma concentration (Tmax), area under the plasma concentration-time curve from time 0 to the time of the last measurable concentration (AUC0−last), area under the plasma concentration-time curve from time 0 to infinity (AUC0−∞), terminal elimination half-life (t1/2), apparent oral clearance (CL/F), and apparent volume of distribution during the terminal disposition phase (Vz/F). The fraction of unbound brigatinib in plasma was calculated using the following formula: % free (unbound) = [free brigatinib concentration measured in buffer after dialysis] / [total brigatinib concentration measured in plasma] × 100. Unbound brigatinib PK parameters were derived from the following formula (except for the unbound CL/F and unbound Vz/F, which were calculated as total CL/F or total Vz/F divided by the individual participant’s overall mean fraction unbound): unbound PK parameter = (PK parameter based on total concentrations) × (individual participant’s overall mean fraction unbound value).
# Descriptive statistics, including mean, standard deviation (SD), percent coefficient of variation (%CV), and median, minimum, and maximum values, were calculated for each time point for plasma brigatinib concentrations for the healthy participant and each Child-Pugh group. Arithmetic means, SD, %CV, median, minimum, and maximum values, and the number of observations were calculated for the PK parameters. Geometric mean and geometric %CV were derived for all parameters, except Tmax, which was reported as median (minimum–maximum). Statistical comparisons of unbound brigatinib PK parameters were made among the hepatic function groups (ie, healthy participants, Child-Pugh classes A, B, and C) using an analysis of variance. […]
# [2] = parameters: method as in PMID 32816246; conditions: single oral 180 mg [14C]-brigatinib; cited from earlier work
# [3] = test system: CYP3A; parameters: method as in PMID 31287236; conditions: cited from earlier work
# [4] = test system: CYP2C8; parameters: method as in PMID 31287236; conditions: cited from earlier work
# [5] = parameters: method as in PMID 27836716, PMID 29915924; conditions: cited from earlier work
# [6] = test system: TKI-naive ALK+ NSCLC; parameters: method as in PMID 34537440; conditions: 95% CI 0.35–0.66; P < 0.0001; cited from earlier work
# [7] = parameters: method as in PMID 30570839; conditions: versus fasted conditions; healthy participants; cited from earlier work
# [8] = test system: cytochrome P450 (CYP) 2C8 and CYP3A4; parameters: method as in ref 13 = [13]; 13. Alunbrig [package insert] (2022) Takeda Pharmaceuticals America, Inc., Lexington, MA; conditions: in vitro; cited from earlier work
# [9] = test system: ALK-positive metastatic NSCLC; parameters: method as in PMID 36065449; conditions: 180 mg QD with 7-day lead-in at 90 mg QD; median follow-up 28.3 months; cited from earlier work
# [10] = mild (Child-Pugh A) vs normal hepatic function
# [11] = moderate (Child-Pugh B) vs normal hepatic function
# [12] = severe (Child-Pugh C) vs normal hepatic function
structure (smiles),measurement,setting,value
COc1cc(N2CCC(N3CCN(C)CC3)CC2)ccc1Nc1ncc(Cl)c(Nc2ccccc2P(C)(C)=O)n1 [brigatinib],"geometric mean AUC0−last,u higher than in healthy participants",[1]; Child-Pugh C vs healthy participants with normal hepatic function,34%
same,Tmax,[1]; mild (Child-Pugh A) hepatic impairment (n=6),1.75 h
same,Tmax,[1]; severe (Child-Pugh C) hepatic impairment (n=6),0.5 h
same,half-life,[1]; mild (Child-Pugh A) (n=6),47 h
same,half-life,[1]; moderate (Child-Pugh B) (n=6),48.7 h
same,half-life,[1]; normal hepatic function (n=9),47.6 h
same,half-life,[1]; severe (Child-Pugh C) (n=6),51 h
same,AUC(0-t),[1]; mild (Child-Pugh A) (n=6),522 ng·h/mL
same,AUC(0-inf),[1]; mild (Child-Pugh A) (n=6),539 ng·h/mL
same,AUC(0-t),[1]; moderate (Child-Pugh B) (n=6),578 ng·h/mL
same,AUC(0-inf),[1]; moderate (Child-Pugh B) (n=6),601 ng·h/mL
same,AUC(0-t),[1]; normal hepatic function (n=9),581 ng·h/mL
same,AUC(0-inf),[1]; normal hepatic function (n=9),603 ng·h/mL
same,AUC(0-t),[1]; severe (Child-Pugh C) (n=6),781 ng·h/mL
same,AUC(0-inf),[1]; severe (Child-Pugh C) (n=6),829 ng·h/mL
same,"AUC0−last,u geometric LSM ratio (90% CI)",[1]; [10],89.77 (70.37–114.52) %
same,"AUC0−∞,u geometric LSM ratio (90% CI)",[1]; [10],89.32 (69.79–114.31) %
same,"Cmax,u geometric LSM ratio (90% CI)",[1]; [10],94.75 (75.36–119.12) %
same,"AUC0−last,u geometric LSM ratio (90% CI)",[1]; [11],99.41 (77.93–126.82) %
same,"AUC0−∞,u geometric LSM ratio (90% CI)",[1]; [11],99.55 (77.78–127.41) %
same,"Cmax,u geometric LSM ratio (90% CI)",[1]; [11],92.01 (73.18–115.68) %
same,"AUC0−last,u geometric LSM ratio (90% CI)",[1]; [12],134.38 (105.34–171.43) %
same,"AUC0−∞,u geometric LSM ratio (90% CI)",[1]; [12],137.41 (107.37–175.86) %
same,"Cmax,u geometric LSM ratio (90% CI)",[1]; [12],165.26 (131.44–207.78) %
same,"Tmax, median (range)",[1]; moderate (Child-Pugh B) hepatic impairment (n=6),2.00 (0.50‒3.00) h
same,"Tmax, median (range)",[1]; normal hepatic function (n=9),2.00 (1.00‒6.00) h
same,"CL/Fu, unbound apparent oral clearance, geometric mean (geometric %CV)",[1]; mild (Child-Pugh A) (n=6),167 (24.9) L/h
same,"Vz/Fu, unbound apparent volume of distribution, geometric mean (geometric %CV)",[1]; mild (Child-Pugh A) (n=6),"11,300 (45.8) L"
same,"CL/Fu, unbound apparent oral clearance, geometric mean (geometric %CV)",[1]; moderate (Child-Pugh B) (n=6),150 (39.8) L/h
same,"Vz/Fu, unbound apparent volume of distribution, geometric mean (geometric %CV)",[1]; moderate (Child-Pugh B) (n=6),"10,500 (29.5) L"
same,"CL/Fu, unbound apparent oral clearance, geometric mean (geometric %CV)",[1]; normal hepatic function (n=9),149 (25.0) L/h
same,"Vz/Fu, unbound apparent volume of distribution, geometric mean (geometric %CV)",[1]; normal hepatic function (n=9),"10,200 (31.0) L"
same,"CL/Fu, unbound apparent oral clearance, geometric mean (geometric %CV)",[1]; severe (Child-Pugh C) (n=6),109 (20.0) L/h
same,"Vz/Fu, unbound apparent volume of distribution, geometric mean (geometric %CV)",[1]; severe (Child-Pugh C) (n=6),"7,990 (33.2) L"
same,"Cmax,u, geometric mean (geometric %CV)",[1]; mild (Child-Pugh A) (n=6),28.7 (9.5) ng/mL
same,"Cmax,u, geometric mean (geometric %CV)",[1]; moderate (Child-Pugh B) (n=6),27.8 (24.8) ng/mL
same,"Cmax,u, geometric mean (geometric %CV)",[1]; normal hepatic function (n=9),30.3 (27.2) ng/mL
same,"Cmax,u, geometric mean (geometric %CV)",[1]; severe (Child-Pugh C) (n=6),50.0 (34.5) ng/mL
same,administered dose recovered in the feces,[2],approximately 65%
same,administered dose recovered in the urine,[2],25%
same,fecal recovery as unchanged brigatinib,[2],41%
same,urinary recovery as unchanged brigatinib,[2],86%
same,decrease of AUC0−∞ with the strong CYP3A inducer rifampicin,[3],80%
same,increase of AUC0−∞ with the strong CYP3A inhibitor itraconazole,[3],101%
same,effect of a strong CYP2C8 inhibitor on brigatinib systemic exposure,[4],no clinically relevant effect
same,mean plasma terminal elimination half-life,[5],approximately 25 hours
same,"PFS hazard ratio, brigatinib compared with crizotinib",[6],0.48
same,"effect of a high-fat, high-calorie meal on total systemic exposure (AUC)",[7],no clinically meaningful effect
same,metabolizing enzymes,[8],primarily metabolized by cytochrome P450 (CYP) 2C8 and CYP3A4
same,IRC-assessed confirmed objective response rate (ORR),[9],56%
same,IRC-assessed median progression-free survival (PFS),[9],16.7 months
